Data as given in ChEMBL document CHEMBL1150932, “Norepinephrine-augmenting lipolytic effectors from Astilbe thunbergii rhizomes” (J Nat Prod, 1998).
Activity calls are given as the source filed them. The calls are words filed in the database; no cut-off is given here.

What was measured:
[1] = Effect on lipolysis in cell-free system consisting sonicated lipid droplets assessed as free fatty acid release at 1000 ug in presence of hormone-sensitive lipase relative to untreated control; type: physicochemical
[2] = Stimulation of ACTH-induced lipolysis in Wistar rat fat cells assessed as free fatty acid release per mL of packed fat cells at 1000 ug after 1 hr relative to ACTH; type: functional
[3] = Enhancement of norepinephrine-induced lipolysis in cell-free system consisting sonicated lipid droplets assessed as free fatty acid release at 1000 ug in presence of hormone-sensitive lipase relative to untreated control; type: physicochemical
[4] = species: Rattus norvegicus; assay: Inhibition of insulin-induced lipogenesis from [U-14C]glucose in Wistar rat fat cells after 1 hr by liquid scintillation counting; type: functional, cell-based
[5] = species: Rattus norvegicus; assay: Induction of lipolysis in Wistar rat fat cells assessed as free fatty acid release per mL of packed fat cells after 1 hr relative to norepinephrine; type: functional, cell-based
[6] = Stimulation of ACTH-induced lipolysis in Wistar rat fat cells assessed as free fatty acid release per mL of packed fat cells at 100 ug after 1 hr relative to ACTH; type: functional
[7] = species: Rattus norvegicus; assay: Enhancement of norepinephrine-induced lipolysis in cell-free system consisting endogenous lipid droplets from Wistar rat fat cells assessed as free fatty acid release per mL of packed fat cells after 1 hr in presence of hormone-sensitive lipase; type: functional
[8] = species: Rattus norvegicus; assay: Enhancement of norepinephrine-induced lipolysis in Wistar rat fat cells assessed as free fatty acid release per mL of packed fat cells after 1 hr relative to norepinephrine; type: functional, cell-based

SMILES	Activity [1] [%]	Activity [2] [%]	Activity [3] [%]	Activity [4]	Activity [5]	Activity [6] [%]	Activity [7]	Activity [8]
C[C@@H]1O[C@@H](O[C@H]2C(=O)c3c(O)cc(O)cc3O[C@@H]2c2ccc(O)c(O)c2)[C@H](O)[C@H](O)[C@H]1O [ASTILBIN]	95.7	278.4	98.5	Active	inactive	195.6	Active	Active
COc1c(O)cc2c(c1O)[C@@H]1O[C@H](CO)[C@@H](O)[C@H](O)[C@H]1OC2=O [BERGENIN]	98.6	356.9	96.2	Active	inactive	105.9	Active	Active
C[C@@H]1O[C@@H](Oc2coc3cc(O)cc(O)c3c2=O)[C@H](O)[C@H](O)[C@H]1O [EUCRYPHIN]	98.5	332.8	100	Active	inactive	79.4	Active	Active
